The values below come from ChEMBL document CHEMBL4627384, “l-Thyroxin and the Nonclassical Thyroid Hormone TETRAC Are Potent Activators of PPARγ” (J Med Chem, 2020).

Structures are written as SMILES. pEC50, pKd: −log10 of the molar value. Active and inactive are the calls of the source. The rule behind the calls is not given here.

What is called Tmax is the time at which the peak concentration occurs. Broadly, the half-life is the time in which the quantity being followed falls by half. The Cmax is the peak of the concentration-time curve. Broadly, the pEC50 is the EC50 on a negative log10 scale, so that one unit is a factor of ten. What is called pKd is −log10 of the Kd, conventionally taken in molar units.

Data set [1] in a line: Tmax in RjOrl:Swiss CD-1 mouse at 10 mg/kg, po administered as single dose measured after 1 to 24 hrs by LC-MS analysis. Format: ADME, organism-based. The conditions noted are these: in vivo.
Data set [2] is described as follows: Plasma concentration in RjOrl:Swiss CD-1 mouse at 10 mg/kg, po administered as single dose measured after 4 to 24 hrs by LC-MS analysis. The data set is classed as ADME, organism-based. The conditions noted are these: in vivo.
Data set [3] is described as follows: Half life in RjOrl:Swiss CD-1 mouse at 10 mg/kg, po administered as single dose measured after 1 to 24 hrs by LC-MS analysis. Format: ADME, organism-based. As to conditions: in vivo.
A short description of data set [4]: Toxicity in RjOrl:Swiss CD-1 mouse assessed as induction of adverse effect at 10 mg/kg, po administered as single dose. Format: organism-based. As to conditions: in vivo.
Data set [5] in a line: Cmax in RjOrl:Swiss CD-1 mouse at 10 mg/kg, po administered as single dose measured after 1 to 24 hrs by LC-MS analysis. The data set is classed as ADME, organism-based. The conditions noted are these: in vivo. Also on record: dose 10 mg/kg, route oral.
Data set [6] addresses T1, Peroxisome proliferator-activated receptor gamma (Homo sapiens, UniProt P37231).
T1 sequence (P37231 whole entry): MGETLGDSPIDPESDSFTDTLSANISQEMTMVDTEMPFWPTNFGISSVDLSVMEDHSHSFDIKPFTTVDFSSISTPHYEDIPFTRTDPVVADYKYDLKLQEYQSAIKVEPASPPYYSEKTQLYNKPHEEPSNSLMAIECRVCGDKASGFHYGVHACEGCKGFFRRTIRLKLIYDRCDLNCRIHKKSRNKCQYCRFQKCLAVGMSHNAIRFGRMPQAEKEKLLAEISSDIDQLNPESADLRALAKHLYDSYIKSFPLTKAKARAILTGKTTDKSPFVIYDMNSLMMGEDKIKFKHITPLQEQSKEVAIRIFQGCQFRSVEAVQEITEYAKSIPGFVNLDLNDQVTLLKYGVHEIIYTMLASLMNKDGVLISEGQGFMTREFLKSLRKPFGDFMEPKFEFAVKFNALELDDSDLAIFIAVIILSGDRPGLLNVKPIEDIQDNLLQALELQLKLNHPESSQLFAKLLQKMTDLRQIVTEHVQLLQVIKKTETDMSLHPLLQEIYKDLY
In words: Agonist activity at recombinant human pFA-CMV fused PPARgamma expressed in HEK293T cells transfected with pFR-luciferase plasmid and pRL-SV40 plasmid incubated for 14 to 16 hrs by dual glo luciferase reporter gene assay. Format: cell-based, HEK-293T. On the technique in general: A reporter such as luciferase makes a cellular process visible.

Data set [7] has as its target T1, Peroxisome proliferator-activated receptor gamma. In words: Binding affinity to recombinant PPARgamma LBD (unknown origin) by isothermal titration calorimetry. (In general: ITC needs no label: the signal is the heat of the interaction.)
Data set [8] in a line: Drug level in human serum. The data set is classed as ADME, cell-free. The conditions noted are these: read-out: Drug uptake.
For data set [9], the target named is T2, Retinoic acid receptor RXR-alpha (Homo sapiens, UniProt P19793).
T2 sequence (P19793 whole entry): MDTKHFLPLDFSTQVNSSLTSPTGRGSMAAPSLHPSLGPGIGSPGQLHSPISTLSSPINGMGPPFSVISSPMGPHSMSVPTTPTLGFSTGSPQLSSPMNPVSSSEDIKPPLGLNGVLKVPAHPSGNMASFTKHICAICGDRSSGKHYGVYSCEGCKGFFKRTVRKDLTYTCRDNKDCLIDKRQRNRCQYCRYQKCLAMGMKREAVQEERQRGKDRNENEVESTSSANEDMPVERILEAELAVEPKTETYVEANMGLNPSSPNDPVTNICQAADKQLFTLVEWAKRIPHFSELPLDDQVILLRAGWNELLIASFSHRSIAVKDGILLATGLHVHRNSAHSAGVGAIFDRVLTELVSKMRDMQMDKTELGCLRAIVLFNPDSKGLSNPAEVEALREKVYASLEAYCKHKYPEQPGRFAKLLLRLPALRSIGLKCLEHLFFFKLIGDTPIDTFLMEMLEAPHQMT
In words: Agonist activity at recombinant human pFA-CMV fused RXRalpha LBD expressed in HEK293T cells transfected with pFR-luciferase plasmid and pRL-SV40 plasmid incubated for 14 to 16 hrs by dual glo luciferase reporter gene assay. Format: cell-based, HEK-293T. As to conditions: hek-293t.

Another data set deals with HEK-293T. In words: Activation of renilla luciferase expressed in HEK293T cells at 3 uM incubated for 14 to 16 hrs by reporter gene assay. The data set is classed as cell-based. As to conditions: Renilla reniformis.
The nature of data set [10]: Drug level in euthyroid human serum by RIA. The data set is classed as ADME, cell-free. The conditions noted are these: read-out: Drug uptake.

As for `O=C(O)Cc1cc(Br)c(Oc2cc(I)c(O)c(I)c2)c(I)c1`, the Tmax in [1] was found to be 1 h. The same compound had a concentration in data set [2] of 40 nM. In addition, the half-life in data set [3] is 19.4 h. Further, the Activity entry in data set [4] was “Non-Toxic”. The peak level in data set [5] (Cmax) was 3180 ng/mL.
Regarding `N[C@@H](Cc1cc(Br)c(Oc2cc(I)c(O)c(I)c2)c(I)c1)C(=O)O`, in data set [6], the pEC50 was 4.89. The Tmax in [1] was 2 h. The same compound came in with a concentration in data set [2] of 40 nM. Besides, the half-life in [3] is 8.7 h. The Activity result in [4] was “Non-Toxic”. The Cmax in [5] amounted to 4480 ng/mL.
For the compound `N[C@@H](Cc1cc(I)c(Oc2ccc(O)c(I)c2)c(I)c1)C(=O)O` [LIOTHYRONINE], the pEC50 in data set [6] is 5.24. Further, the pKd in data set [7] is 6.15. Moreover, in [8], the concentration is 1.3 to 2.1 nM. The EC50 result in data set [9] was “Not Active”.
`N[C@@H](Cc1ccc(Oc2cc(I)c(O)c(I)c2)c(I)c1)C(=O)O` [REVERSE TRIIODOTHYRONINE]: in data set [6], the pEC50 is 5.42. For the same compound, the pKd in data set [7] is 6.20. Further, the EC50 result in [9] was “Not Active”.
Regarding `O=C(O)Cc1cc(I)c(Oc2ccc(O)c(I)c2)c(I)c1` [TIRATRICOL], in the data set with HEK-293T, the outcome was inactive. Further, the concentration in [10] came to 0.24 nM.
